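How tested: cells in 96-well plates exposed to compound for 48 hours at five concentrations. Here, GI50 denotes the concentration required for 50% inhibition of growth.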 The source made the active and inactive calls. Cut-off read from the data, not from the text of the source: active = GI50 up to about 1.1 µM and inactive = higher.
Key:
Test in all cases: growth of human tumour cells (NCI), 48 h
SR = test system: SR
IGROV-1 = test system: IGROV-1
OVCAR-8 = test system: OVCAR-8
A549 = test system: A549
BT-549 = test system: BT-549
RPMI-8226 = test system: RPMI-8226
PC-3 = test system: PC-3
SK-OV-3 = test system: SK-OV-3
SK-MEL-2 = test system: SK-MEL-2
UACC-62 = test system: UACC-62
U-251 = test system: U-251
NCI/ADR-RES = test system: NCI/ADR-RES
UACC-257 = test system: UACC-257
Hs-578T = test system: Hs-578T
OVCAR-4 = test system: OVCAR-4
MDA-N = test system: MDA-N
SF-295 = test system: SF-295
EKVX = test system: EKVX
MOLT-4 = test system: MOLT-4
MCF7 = test system: MCF7

Row | Compound | GI50 (SR) | GI50 (IGROV-1) | GI50 (OVCAR-8) | GI50 (A549) | GI50 (BT-549) | GI50 (RPMI-8226) | GI50 (PC-3) | GI50 (SK-OV-3) | GI50 (SK-MEL-2) | GI50 (UACC-62) | GI50 (U-251) | GI50 (NCI/ADR-RES) | GI50 (UACC-257) | GI50 (Hs-578T) | GI50 (OVCAR-4) | GI50 (MDA-N) | GI50 (SF-295) | GI50 (EKVX) | GI50 (MOLT-4) | GI50 (MCF7)
1 | Oc1ccccc1/C=N/Nc1nnc2c3ccccc3c3ccccc3c2n1 | 52.6 µM (inactive) | 39.9 µM (inactive) | > 100 µM (inactive) | > 100 µM (inactive) | > 100 µM (inactive) | > 100 µM (inactive) | 80.5 µM (inactive) | 58.3 µM (inactive) | 55.5 µM (inactive) | 61.4 µM (inactive) | > 100 µM (inactive) | 47.9 µM (inactive) | 25.2 µM (inactive) | > 100 µM (inactive) | > 100 µM (inactive) | 29.9 µM (inactive) | 32.8 µM (inactive) | > 100 µM (inactive) | > 100 µM (inactive) | 32.3 µM (inactive)
2 | CN(O)C(=O)Cc1ccc(OCc2cccc(Cl)c2)cc1 | > 100 µM (inactive) | > 100 µM (inactive) | > 100 µM (inactive) | > 100 µM (inactive) | > 100 µM (inactive) | > 100 µM (inactive) | > 100 µM (inactive) | > 100 µM (inactive) | > 100 µM (inactive) | > 100 µM (inactive) | > 100 µM (inactive) | > 100 µM (inactive) | > 100 µM (inactive) | > 100 µM (inactive) | > 100 µM (inactive) | > 100 µM (inactive) | > 100 µM (inactive) | > 100 µM (inactive) | > 100 µM (inactive) | > 100 µM (inactive)
3 | Cc1cc2c(cc1-c1cc3c(cc1C)C(C(C)C)=C(O)C(=O)/C3=C\Nc1c(C)n(C)n(-c3ccccc3)c1=O)/C(=C/Nc1c(C)n(C)n(-c3ccccc3)c1=O)C(=O)C(O)=C2C(C)C | 39.2 µM (inactive) | 51.1 µM (inactive) | 82 µM (inactive) | 40.1 µM (inactive) | > 100 µM (inactive) | 71.9 µM (inactive) | 66.2 µM (inactive) | > 100 µM (inactive) | > 100 µM (inactive) | > 100 µM (inactive) | 28.2 µM (inactive) | > 100 µM (inactive) | > 100 µM (inactive) | > 100 µM (inactive) | > 100 µM (inactive) | > 100 µM (inactive) | > 100 µM (inactive) | 76.9 µM (inactive) | 41.2 µM (inactive) | 38.8 µM (inactive)
4 | Cc1cc(C(C)(C)C)c(OCCCN2CCOCC2)c(C(C)(C)C)c1 | 17.7 µM (inactive) | 19.5 µM (inactive) | 20.2 µM (inactive) | 17.5 µM (inactive) | 17.5 µM (inactive) | 14.1 µM (inactive) | 15.8 µM (inactive) | 20 µM (inactive) | 16.5 µM (inactive) | 16 µM (inactive) | 18 µM (inactive) | 17 µM (inactive) | 17.3 µM (inactive) | 20.7 µM (inactive) | 15.9 µM (inactive) | 18.1 µM (inactive) | 17.5 µM (inactive) | 17.9 µM (inactive) | 17.1 µM (inactive) | 18.6 µM (inactive)
5 | CC(C)(CN1CCCCC1)C(=O)CC(SCCS(=O)(=O)O)c1ccccc1 (stereo not drawn) | 0.466 µM (active) | 26.4 µM (inactive) | 18.8 µM (inactive) | 27.4 µM (inactive) | 15.3 µM (inactive) | 23.2 µM (inactive) | 22.9 µM (inactive) | 55 µM (inactive) | 37.9 µM (inactive) | 14 µM (inactive) | 21.6 µM (inactive) | 13.4 µM (inactive) |  | 36.1 µM (inactive) | 17.6 µM (inactive) | 16.3 µM (inactive) | 10.9 µM (inactive) | 14.1 µM (inactive) | 11.3 µM (inactive) | 10.2 µM (inactive)
6 | COc1cc2ccc1OCc1cccc(n1)COc1ccc(cc1OC)/C=N\CCNCC/N=C\2 | > 100 µM (inactive) | > 100 µM (inactive) | > 100 µM (inactive) | > 100 µM (inactive) | 42.5 µM (inactive) | > 100 µM (inactive) | > 100 µM (inactive) | 63.4 µM (inactive) | > 100 µM (inactive) |  | 33.2 µM (inactive) | > 100 µM (inactive) | > 100 µM (inactive) | 35.4 µM (inactive) | > 100 µM (inactive) | > 100 µM (inactive) | 41.7 µM (inactive) | > 100 µM (inactive) | > 100 µM (inactive) | > 100 µM (inactive)

Source: ChEMBL document CHEMBL1201862, “PubChem BioAssay data set” (2004)
